Experimental data from patent US20140005163A1 (NOVARTIS AG, priority 2010, published 2014).

Key:
mTOR = target: T1, mTOR (Homo sapiens, UniProt P42345); experiment: Biochemical assay for m-TOR by TR-FRET; settings: 8 μM ATP, 400 nM GFP-4EBP1, 0.5 nM mTOR
T1 construct: purchased Invitrogen Corporation (Carlsbad/CA, USA) PV4753
Method in brief: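 Steps: ATP (8 μM final) plus GFP-4EBP1 (400 nM final) combined with mTOR (0.5 nM final), incubated at rt; buffer HEPES pH 7.5 with 10 mM MnCl2, NaCl, EGTA, DTT. Then stopped with EDTA/Tb3+-anti-p4EBP1 pT46 Ab (0.5 nM). Plates read after 15 min.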

PI3K beta = target: T2, PI3K beta (Homo sapiens, UniProt P42338); experiment: PI3K beta kinase assay (Kinase-Glo luminescence); assay type: biochemical
T2 construct: for the full-length p110-b subunit are generated and fused by overlapping PCR; p85(iSH2) fusion partner (see partner chain) (N); His tag (C); made in house; host or cells: baculovirus; Tn5 (Trichoplusia ni) or TiniPro insect cells
T2 sequence (P42338 with tags, fused parts or gaps limits assumed): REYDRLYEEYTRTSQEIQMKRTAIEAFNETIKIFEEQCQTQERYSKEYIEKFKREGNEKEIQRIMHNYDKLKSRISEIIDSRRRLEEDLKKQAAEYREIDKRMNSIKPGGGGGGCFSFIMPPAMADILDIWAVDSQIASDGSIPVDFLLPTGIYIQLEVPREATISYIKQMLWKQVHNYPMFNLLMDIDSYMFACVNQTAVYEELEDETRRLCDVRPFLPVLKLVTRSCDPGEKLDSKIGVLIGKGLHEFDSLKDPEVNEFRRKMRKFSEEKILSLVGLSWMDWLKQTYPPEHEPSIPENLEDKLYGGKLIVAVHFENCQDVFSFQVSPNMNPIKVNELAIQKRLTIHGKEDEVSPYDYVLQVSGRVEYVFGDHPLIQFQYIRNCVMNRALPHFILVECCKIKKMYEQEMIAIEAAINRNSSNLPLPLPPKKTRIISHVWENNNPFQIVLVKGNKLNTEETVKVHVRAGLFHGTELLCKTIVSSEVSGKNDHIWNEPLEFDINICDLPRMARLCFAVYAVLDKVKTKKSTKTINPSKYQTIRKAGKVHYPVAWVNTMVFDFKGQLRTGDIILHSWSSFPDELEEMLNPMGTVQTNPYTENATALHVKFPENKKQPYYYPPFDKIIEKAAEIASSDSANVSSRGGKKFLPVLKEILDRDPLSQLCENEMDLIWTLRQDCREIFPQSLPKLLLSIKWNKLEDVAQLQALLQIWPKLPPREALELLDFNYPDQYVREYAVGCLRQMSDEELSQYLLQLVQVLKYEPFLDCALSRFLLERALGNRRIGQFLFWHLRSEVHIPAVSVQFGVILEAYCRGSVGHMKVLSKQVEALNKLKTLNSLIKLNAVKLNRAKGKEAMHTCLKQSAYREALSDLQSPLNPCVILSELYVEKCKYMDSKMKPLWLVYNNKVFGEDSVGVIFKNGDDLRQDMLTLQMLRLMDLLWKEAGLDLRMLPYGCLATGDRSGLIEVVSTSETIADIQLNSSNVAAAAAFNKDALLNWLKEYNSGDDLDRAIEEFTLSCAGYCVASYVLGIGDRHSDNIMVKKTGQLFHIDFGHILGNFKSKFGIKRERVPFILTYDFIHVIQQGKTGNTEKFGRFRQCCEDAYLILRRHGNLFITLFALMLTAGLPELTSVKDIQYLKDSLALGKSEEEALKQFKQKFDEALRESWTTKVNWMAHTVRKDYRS
Method in brief: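 Enzyme: BV949 p85(iSH2)-Gly linker-p110β FL-His, 25 nM. Substrate: PI 10 μg/mL. ATP: 1 μM, added to start. Buffer: Tris pH 7.5 10 mM, MgCl2 3 mM, NaCl 50 mM, CHAPS 0.05%, DTT 1 mM. RT, 60 min. Readout: Kinase-Glo. IC50 by 4-parameter fit.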

PI3K delta = target: T3, PI3K delta (Homo sapiens, UniProt O00329); experiment: PI3K delta kinase assay (Kinase-Glo luminescence); assay type: biochemical
T3 construct: for the full-length p110-d subunit are generated and fused by overlapping PCR; p85(iSH2) fusion partner (see partner chain) (N); His tag (C); made in house; host or cells: baculovirus; Tn5 (Trichoplusia ni) or TiniPro insect cells
T3 sequence (O00329 with tags, fused parts or gaps limits assumed): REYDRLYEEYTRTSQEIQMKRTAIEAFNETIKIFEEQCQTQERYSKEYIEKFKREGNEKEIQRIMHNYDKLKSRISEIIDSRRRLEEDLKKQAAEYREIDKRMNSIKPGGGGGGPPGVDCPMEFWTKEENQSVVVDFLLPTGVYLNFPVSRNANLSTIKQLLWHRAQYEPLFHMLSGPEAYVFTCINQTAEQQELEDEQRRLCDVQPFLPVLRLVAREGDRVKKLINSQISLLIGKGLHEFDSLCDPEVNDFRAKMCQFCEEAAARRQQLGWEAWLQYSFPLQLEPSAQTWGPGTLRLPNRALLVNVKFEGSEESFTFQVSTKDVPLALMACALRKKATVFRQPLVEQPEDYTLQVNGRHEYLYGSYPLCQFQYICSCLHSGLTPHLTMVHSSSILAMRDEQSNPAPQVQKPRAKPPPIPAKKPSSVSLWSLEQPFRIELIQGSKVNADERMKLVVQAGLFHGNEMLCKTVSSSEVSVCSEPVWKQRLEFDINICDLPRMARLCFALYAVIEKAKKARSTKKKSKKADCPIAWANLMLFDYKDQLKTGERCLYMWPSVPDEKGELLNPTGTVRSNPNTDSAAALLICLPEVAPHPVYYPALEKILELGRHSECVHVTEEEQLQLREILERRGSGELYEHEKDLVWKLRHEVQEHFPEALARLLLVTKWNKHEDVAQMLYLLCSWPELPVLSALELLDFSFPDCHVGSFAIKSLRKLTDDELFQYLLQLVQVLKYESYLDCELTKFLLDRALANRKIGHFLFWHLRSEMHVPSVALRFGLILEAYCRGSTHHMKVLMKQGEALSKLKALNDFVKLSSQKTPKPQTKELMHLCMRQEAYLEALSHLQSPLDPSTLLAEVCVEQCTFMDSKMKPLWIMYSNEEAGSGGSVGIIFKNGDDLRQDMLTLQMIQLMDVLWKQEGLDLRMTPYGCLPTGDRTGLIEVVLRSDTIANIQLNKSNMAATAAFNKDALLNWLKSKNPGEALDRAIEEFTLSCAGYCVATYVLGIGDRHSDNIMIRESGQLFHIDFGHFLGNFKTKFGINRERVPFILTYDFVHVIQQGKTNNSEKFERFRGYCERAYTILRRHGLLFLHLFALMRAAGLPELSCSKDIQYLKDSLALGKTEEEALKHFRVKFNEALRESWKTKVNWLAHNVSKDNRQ
Method in brief: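 Recombinant p85(iSH2)-Gly linker-p110δ full-length construct (BV1060, C-terminal His tag) was used at 10 nM with 10 μg/mL phosphatidylinositol and 1 μM ATP in 10 mM Tris-HCl pH 7.5, 3 mM MgCl2, 50 mM NaCl, 0.05% CHAPS, 1 mM DTT. After 60 min at room temperature, remaining ATP was measured by Kinase-Glo luminescence.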

T1 sequence (P42345 1360-2549 limits assumed): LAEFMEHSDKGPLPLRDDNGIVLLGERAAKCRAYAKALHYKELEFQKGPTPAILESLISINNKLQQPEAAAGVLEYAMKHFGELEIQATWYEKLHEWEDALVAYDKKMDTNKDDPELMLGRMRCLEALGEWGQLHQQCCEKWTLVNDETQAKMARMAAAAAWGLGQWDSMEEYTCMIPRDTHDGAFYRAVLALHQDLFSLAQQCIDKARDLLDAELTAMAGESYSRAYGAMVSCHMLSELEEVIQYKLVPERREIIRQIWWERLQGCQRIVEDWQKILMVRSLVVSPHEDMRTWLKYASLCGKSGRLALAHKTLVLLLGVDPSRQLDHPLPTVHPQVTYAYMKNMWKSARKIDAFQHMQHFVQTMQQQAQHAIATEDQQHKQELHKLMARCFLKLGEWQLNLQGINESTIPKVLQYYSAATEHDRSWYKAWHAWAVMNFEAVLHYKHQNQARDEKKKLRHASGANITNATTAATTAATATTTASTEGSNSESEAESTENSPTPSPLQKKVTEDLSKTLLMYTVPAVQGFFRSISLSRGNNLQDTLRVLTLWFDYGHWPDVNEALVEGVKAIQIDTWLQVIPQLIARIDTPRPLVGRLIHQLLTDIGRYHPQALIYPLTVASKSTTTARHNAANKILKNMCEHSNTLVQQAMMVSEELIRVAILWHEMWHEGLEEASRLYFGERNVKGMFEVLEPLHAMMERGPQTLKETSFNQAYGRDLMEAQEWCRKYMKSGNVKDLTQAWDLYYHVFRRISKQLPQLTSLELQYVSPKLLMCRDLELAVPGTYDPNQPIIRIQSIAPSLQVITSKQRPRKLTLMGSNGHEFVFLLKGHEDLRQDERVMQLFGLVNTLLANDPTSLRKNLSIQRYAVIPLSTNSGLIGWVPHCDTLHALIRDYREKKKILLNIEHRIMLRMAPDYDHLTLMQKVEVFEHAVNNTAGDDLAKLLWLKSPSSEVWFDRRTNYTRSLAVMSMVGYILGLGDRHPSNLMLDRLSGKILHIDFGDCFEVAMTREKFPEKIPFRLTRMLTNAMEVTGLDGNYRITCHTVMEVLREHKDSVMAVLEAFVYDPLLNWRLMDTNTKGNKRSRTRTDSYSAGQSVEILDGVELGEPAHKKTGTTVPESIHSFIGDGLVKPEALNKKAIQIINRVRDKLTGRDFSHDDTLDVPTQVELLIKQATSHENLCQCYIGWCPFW

Row | Structure (SMILES) | IC50 (mTOR) [nM] | IC50 (PI3K beta) [nM] | IC50 (PI3K delta) [nM]
1 | CNc1ncc(-c2ccc3ncc4c(c3c2)n(-c2cn(C(C)C)nc2C)c(=O)n4C)cc1Cl [Example 146.3, 8-(5-Chloro-6-methylamino-pyridin-3-yl)-1-(1-isopropyl-3-methyl-1H-pyrazol-4-yl)-3-methyl-1,3-dihydro-imidazo[4,5-c]quinolin-2-one] | 9 | 207 | 14
2 | CNc1ncc(-c2ccc3ncc4c(c3c2)n(-c2c(C)noc2C)c(=O)n4C)cc1Cl [Example 146.6, 8-(5-Chloro-6-methylamino-pyridin-3-yl)-1-(3,5-dimethyl-isoxazol-4-yl)-3-methyl-1,3-dihydro-imidazo[4,5-c]quinolin-2-one] | 479 | 281 | 10
3 | CCNc1ncc(-c2ccc3ncc4c(c3c2)n(-c2cn(C)nc2C)c(=O)n4C)cc1Cl [Example 147, 8-(5-Chloro-6-ethylamino-pyridin-3-yl)-1-(1,3-dimethyl-1H-pyrazol-4-yl)-3-methyl-1,3-dihydro-imidazo[4,5-c]quinolin-2-one] | 11 | 114 | 8
4 | Cc1nn(C)cc1-n1c(=O)n(C)c2cnc3ccc(-c4cnc(F)c(N(C)C)c4)cc3c21 [Example 151, 8-(5-Dimethylamino-6-fluoro-pyridin-3-yl)-1-(1,3-dimethyl-1H-pyrazol-4-yl)-3-methyl-1,3-dihydro-imidazo[4,5-c]quinolin-2-one] | 15 | 21 | 5
5 | Cc1nn(C)cc1-n1c(=O)n(C)c2cnc3ccc(-c4cnc(Cl)c(N)c4)cc3c21 [Example 152.2, 8-(5-Amino-6-chloro-pyridin-3-yl)-1-(1,3-dimethyl-1H-pyrazol-4-yl)-3-methyl-1,3-dihydro-imidazo[4,5-c]quinolin-2-one] | 5 | 33 | 28
6 | CCNc1cc(-c2ccc3ncc4c(c3c2)n(-c2cn(C)nc2C)c(=O)n4C)cnc1COC [Example 156, 1-(1,3-Dimethyl-1H-pyrazol-4-yl)-8-(5-ethylamino-6-methoxymethyl-pyridin-3-yl)-3-methyl-1,3-dihydro-imidazo[4,5-c]quinolin-2-one] | 5 | 29 | 17
7 | CNc1cc(-c2ccc3ncc4c(c3c2)n(-c2cn(C)nc2C)c(=O)n4C)cnc1CO [Example 158.1, 1-(1,3-Dimethyl-1H-pyrazol-4-yl)-8-(6-hydroxymethyl-5-methylamino-pyridin-3-yl)-3-methyl-1,3-dihydro-imidazo[4,5-c]quinolin-2-one] | 4 | 10 | 15
8 | CNc1cc(-c2ccc3ncc4c(c3c2)n(-c2c(C)nn(C)c2C)c(=O)n4C)cnc1CO [Example 158.4, 8-(6-Hydroxymethyl-5-methylamino-pyridin-3-yl)-3-methyl-1-(1,3,5-trimethyl-1H-pyrazol-4-yl)-1,3-dihydro-imidazo[4,5-c]quinolin-2-one] | 70 | 112 | 11
9 | CNc1cc(-c2ccc3ncc4c(c3c2)n(-c2cn(C)nc2Cl)c(=O)n4C)cnc1COC [Example 160.1, 1-(3-Chloro-1-methyl-1H-pyrazol-4-yl)-8-(6-methoxymethyl-5-methylamino-pyridin-3-yl)-3-methyl-1,3-dihydro-imidazo[4,5-c]quinolin-2-one] | < 3 | 17 | < 3
10 | CCOCc1cc(-c2ccc3ncc4c(c3c2)n(-c2cn(CC)nc2C)c(=O)n4C)cnc1N [Example 166.2, 8-(6-Amino-5-ethoxymethyl-pyridin-3-yl)-1-(1-ethyl-3-methyl-1H-pyrazol-4-yl)-3-methyl-1,3-dihydro-imidazo[4,5-c]quinolin-2-one] | 55 | 81 | 7
11 | COCc1cc(-c2ccc3ncc4c(c3c2)n(-c2cn(C(C)C)nc2C)c(=O)n4C)cnc1N [Example 168.1, 8-(6-Amino-5-methoxymethyl-pyridin-3-yl)-1-(1-isopropyl-3-methyl-1H-pyrazol-4-yl)-3-methyl-1,3-dihydro-imidazo[4,5-c]quinolin-2-one] | 12 | 34 | 5
12 | CNc1ncc(-c2ccc3ncc4c(c3c2)n(-c2cn(C(C)C)nc2C)c(=O)n4C)cc1CO [Example 171, 8-(5-Hydroxymethyl-6-methylamino-pyridin-3-yl)-1-(1-isopropyl-3-methyl-1H-pyrazol-4-yl)-3-methyl-1,3-dihydro-imidazo[4,5-c]quinolin-2-one] | < 3 | 145 | 14
13 | Cc1nn(C)cc1-n1c(=O)n(C)c2cnc3ccc(-c4cncc(NC(C)C)c4)cc3c21 [Example 177.1, 1-(1,3-Dimethyl-1H-pyrazol-4-yl)-8-(5-isopropylamino-pyridin-3-yl)-3-methyl-1,3-dihydro-imidazo[4,5-c]quinolin-2-one] | 3 | 18 | 12
14 | CCn1cc(-n2c(=O)n(C)c3cnc4ccc(-c5cncc(NC)c5)cc4c32)c(C)n1 [Example 180.1, 1-(1-Ethyl-3-methyl-1H-pyrazol-4-yl)-3-methyl-8-(5-methylamino-pyridin-3-yl)-1,3-dihydro-imidazo[4,5-c]quinolin-2-one] | 5 | 42 | 20
15 | Cc1nn(C)cc1-n1c(=O)n(C)c2cnc3ccc(-c4cncc(OCCF)c4)cc3c21 [Example 181, 1-(1,3-Dimethyl-1H-pyrazol-4-yl)-8-[5-(2-fluoro-ethoxy)-pyridin-3-yl]-3-methyl-1,3-dihydro-imidazo[4,5-c]quinolin-2-one] | 10 | 13 | 24
16 | Cc1nn(C)cc1-n1c(=O)n(C)c2cnc3ccc(-c4cncc(OC(CF)CF)c4)cc3c21 [Example 182, 1-(1,3-Dimethyl-1H-pyrazol-4-yl)-8-[5-(2-fluoro-1-fluoromethyl-ethoxy)-pyridin-3-yl]-3-methyl-1,3-dihydro-imidazo[4,5-c]quinolin-2-one] | 6 | 11 | 8
17 | COc1cc(-c2ccc3ncc4c(c3c2)n(-c2cn(C(C)C)nc2C)c(=O)n4C)cnc1CO [Example 194.1, 8-(6-Hydroxymethyl-5-methoxy-pyridin-3-yl)-1-(1-isopropyl-3-methyl-1H-pyrazol-4-yl)-3-methyl-1,3-dihydro-imidazo[4,5-c]quinolin-2-one] | 101 | 324 | 15
18 | COc1cc(-c2ccc3ncc4c(c3c2)n(-c2cn(C)nc2Cl)c(=O)n4C)cnc1CO [Example 194.2, 1-(3-chloro-1-methyl-1H-pyrazol-4-yl)-8-(6-hydroxymethyl-5-methoxy-pyridin-3-yl)-3-methyl-1,3-dihydro-imidazo[4,5-c]quinolin-2-one] | 6 | 6 | < 3
19 | CCOCc1ncc(-c2ccc3ncc4c(c3c2)n(-c2cn(C)nc2Cl)c(=O)n4C)cc1OC [Example 196.1, 1-(3-Chloro-1-methyl-1H-pyrazol-4-yl)-8-(6-ethoxymethyl-5-methoxy-pyridin-3-yl)-3-methyl-1,3-dihydro-imidazo[4,5-c]quinolin-2-one] | 45 | 77 | 5
